Literature values, collected in paper PMC7395068, “The evolution of strategies to minimise the risk of human drug-induced liver injury (DILI) in drug discovery and development” (Archives of Toxicology, 2020).
Where two headings read alike, the source gives them in different places.

Details: cited from earlier work
[1] = binary in vivo DILI call given beside the severity category, ref Chen 2016
[2] = human DILI concern category (LTKB DILIrank), ref Chen 2016
[3] = binary in vivo human DILI call, ref Chen 2016
[4] = human DILI, LTKB DILIrank category, ref Chen 2016
[5] = LTKB DILIrank category, ref Chen 2016

In the case of `O=C1CCC(N2C(=O)c3ccccc3C2=O)C(=O)N1` (stereo not drawn) [thalidomide], the “DILI +VE (5-8), DILI -VE (-4)” value [1] is given as “+VE” and the DILI severity category [2] is given as “vLess-DILI-Concern”.

For `C[C@@H]1O[C@@H]1P(=O)(O)O` [fosfomycin], the “DILI +VE (5-8), DILI -VE (-4)” value [3] is listed as “+VE” and the DILI severity category [4] is listed as “vLess-DILI-Concern”.

In the case of rilonacept, the “DILI +VE (5-8), DILI -VE (-4)” value (in vivo) is given as “-VE” and the DILI severity category (in vivo) is given as “vNo-DILI-Concern”.

In the case of `Nc1ccc(S(=O)(=O)Nc2nccs2)cc1` [sulfathiazole], the “DILI +VE (5-8), DILI -VE (-4)” value [1] is listed as “+VE” and the DILI severity category [2] is listed as “vMost-DILI-Concern”.

For `Nc1ncn([C@H]2C[C@H](O)[C@@H](CO)O2)c(=O)n1` [decitabine], the “DILI +VE (5-8), DILI -VE (-4)” value [3] is given as “-VE” and the DILI severity category [4] is given as “Ambiguous DILI-concern”.

For `C[N+]1(C)CCCC(OC(=O)C(O)(c2ccccc2)c2ccccc2)C1` (stereo not drawn) [mepenzolate], the “DILI +VE (5-8), DILI -VE (-4)” value [3] is listed as “-VE” and the DILI severity category [4] is listed as “vNo-DILI-Concern”.

For `O=P(O)(O)C(Sc1ccc(Cl)cc1)P(=O)(O)O` [tiludronate], the “DILI +VE (5-8), DILI -VE (-4)” value [1] is listed as “-VE” and the DILI severity category [2] is listed as “vNo-DILI-Concern”.

In the case of ferumoxytol, the “DILI +VE (5-8), DILI -VE (-4)” value (in vivo) is listed as “-VE” and the DILI severity category (in vivo) is listed as “vNo-DILI-Concern”.

For `O=C([O-])O.[Na+]` [sodium bicarbonate], the “DILI +VE (5-8), DILI -VE (-4)” value (in vivo) is listed as “-VE”.

For `NS(=O)(=O)c1cc(Cl)c(Cl)c(S(N)(=O)=O)c1` [dichlorphenamide], the “DILI +VE (5-8), DILI -VE (-4)” value [3] is listed as “-VE” and the DILI severity category [4] is listed as “vNo-DILI-Concern”.

For `O=S([O-])([O-])=S.[Na+].[Na+]` [sodium thiosulfate], the “DILI +VE (5-8), DILI -VE (-4)” value (in vivo) is given as “-VE” and the DILI severity category (in vivo) is given as “vNo-DILI-Concern”.

For `CN1CCCCC1CCN1c2ccccc2Sc2ccc([S+](C)[O-])cc21` (stereo not drawn) [mesoridazine], the “DILI +VE (5-8), DILI -VE (-4)” value [1] is given as “-VE” and the DILI severity category [2] is given as “Ambiguous DILI-concern”.

For `CC(=O)NCCCS(=O)(=O)O` [acamprosate], the “DILI +VE (5-8), DILI -VE (-4)” value (in vivo) is listed as “+VE” and the DILI severity category (in vivo) is listed as “vLess-DILI-Concern”.

For `CCN(C)C(=O)Oc1cccc([C@H](C)N(C)C)c1` [rivastigmine], the “DILI +VE (5-8), DILI -VE (-4)” value [1] is listed as “+VE” and the DILI severity category [2] is listed as “vLess-DILI-Concern”.

For `CC1(C)S[C@@H]2[C@H](NC(=O)C(C(=O)O)c3ccccc3)C(=O)N2[C@H]1C(=O)O` (stereo partly drawn) [carbenicillin], the DILI severity category [5] is given as “vLess-DILI-Concern”.

For `C[N+](C)(C)C[C@H](O)CC(=O)[O-]` [l-carnitine], the “DILI +VE (5-8), DILI -VE (-4)” value [3] is listed as “-VE” and the DILI severity category [4] is listed as “vNo-DILI-Concern”.

For `O=C1CCCC(=O)C1C(=O)c1ccc(C(F)(F)F)cc1[N+](=O)[O-]` [nitisinone], the “DILI +VE (5-8), DILI -VE (-4)” value [1] is given as “-VE” and the DILI severity category [2] is given as “Ambiguous DILI-concern”.

In the case of `C[C@@H](Cc1ccccc1)N(C)Cc1ccccc1` [benzphetamine], the “DILI +VE (5-8), DILI -VE (-4)” value (in vivo) is given as “-VE” and the DILI severity category (in vivo) is given as “vNo-DILI-Concern”.

In the case of sargramostim, the “DILI +VE (5-8), DILI -VE (-4)” value (in vivo) is given as “-VE” and the DILI severity category (in vivo) is given as “vNo-DILI-Concern”.

For `O=C([O-])[O-].O=C([O-])[O-].O=C([O-])[O-].[La+3].[La+3]` [lanthanum carbonate], the “DILI +VE (5-8), DILI -VE (-4)” value (in vivo) is listed as “-VE” and the DILI severity category (in vivo) is listed as “vNo-DILI-Concern”.

For alteplase, the “DILI +VE (5-8), DILI -VE (-4)” value (in vivo) is given as “-VE” and the DILI severity category (in vivo) is given as “vNo-DILI-Concern”.

For `COC(=O)[C@H](c1ccccc1Cl)N1CCc2sccc2C1` [clopidogrel], the DILI severity category [5] is given as “vLess-DILI-Concern”.

For `CC(=O)[O-].CC(=O)[O-].[Ca+2]` [calcium acetate], the “DILI +VE (5-8), DILI -VE (-4)” value (in vivo) is listed as “-VE” and the DILI severity category (in vivo) is listed as “vNo-DILI-Concern”.

In the case of `CC(N)Cc1ccccc1` (stereo not drawn) [amphetamine], the “DILI +VE (5-8), DILI -VE (-4)” value (in vivo) is listed as “+VE” and the DILI severity category (in vivo) is listed as “vLess-DILI-Concern”.

In the case of `O=C1Nc2ccc(Cl)cc2C(c2ccccc2Cl)=NC1O` (stereo not drawn) [lorazepam], the “DILI +VE (5-8), DILI -VE (-4)” value [3] is given as “-VE” and the DILI severity category [4] is given as “Ambiguous DILI-concern”.

In the case of `CC(=O)O[C@H]1C[C@@H]2CC[C@@H]3[C@H](CC[C@@]4(C)[C@H]3C[C@H]([N+]3(C)CCCCC3)[C@@H]4OC(C)=O)[C@@]2(C)C[C@@H]1N1CCCCC1` [vecuronium], the DILI severity category [5] is listed as “vNo-DILI-Concern” and the “DILI +VE (5-8), DILI -VE (-4)” value (binary human DILI assignment, ref Chen 2016) is listed as “-VE”.

For `CCCCc1ncc(/C=C(\Cc2cccs2)C(=O)O)n1Cc1ccc(C(=O)O)cc1` [eprosartan], the “DILI +VE (5-8), DILI -VE (-4)” value [3] is given as “-VE” and the DILI severity category [4] is given as “Ambiguous DILI-concern”.

For cholestyramine, the “DILI +VE (5-8), DILI -VE (-4)” value (in vivo) is listed as “-VE” and the DILI severity category (in vivo) is listed as “Ambiguous DILI-concern”.

In the case of `C[C@@H](NCCCc1cccc(C(F)(F)F)c1)c1cccc2ccccc12` [cinacalcet], the DILI severity category [5] is given as “vNo-DILI-Concern” and the “DILI +VE (5-8), DILI -VE (-4)” value (binary DILI call, ref Chen 2016) is given as “-VE”.

In the case of `OCC(S)CS` (stereo not drawn) [dimercaprol], the “DILI +VE (5-8), DILI -VE (-4)” value [3] is listed as “-VE” and the DILI severity category [4] is listed as “vNo-DILI-Concern”.
